Experiments:
Experiment in all cases: Kinobeads competition binding, HeLa Placenta lysate mix
Set-up in all cases: capturing and identification of kinases from mixed HeLa placenta lysates; endogenous in cells; host or cells: mixed lysate of HeLa cells and placenta tissue
Conditions in all cases: 10 μM free compound
[1] = molecular target: CaMK2d (Homo sapiens, UniProt Q13557)
Procedure: (§1) To one aliquot of cell lysate 10 μM of the free compound (FIG. 3, CZC31326) was added and allowed to bind to proteins in the lysate. Then the affinity matrix with the immobilized compound was added to capture proteins that were not interacting with the previously added free compound. Beads were separated from the lysate and bead bound proteins were eluted in SDS sample buffer and subsequently separated by SDS-Polyacrylamide gel electrophoresis (FIG. 10). Suitable gel bands were cut out and subjected to in-gel proteolytic digestion with trypsin. The second lysate aliquot was processed identically, however no free compound was added (DMSO solvent control). Peptides originating from samples 1 and 2 were labeled with iTRAQ reagents (iTRAQ 114 and iTRAQ 117) and the combined samples were analyzed with a nano-flow liquid chromatography system coupled online to a tandem mass spectrometer (LC-MS/MS) experiment followed by iTRAQ reporter ion quantification in the MS/MS spectra as described in Example 2.

[2] = molecular target: Erk2 (Homo sapiens, UniProt P28482)
Procedure: as §1

[3] = molecular target: MARK3 (Homo sapiens, UniProt P27448)
Procedure: as §1

[4] = molecular target: AurB (Homo sapiens, UniProt Q96GD4)
Procedure: as §1

[5] = molecular target: FES (Homo sapiens, UniProt P07332)
Procedure: as §1

[6] = molecular target: T1, MAP2K5 (Homo sapiens, UniProt Q13163)
T1 sequence (Q13163 1-448): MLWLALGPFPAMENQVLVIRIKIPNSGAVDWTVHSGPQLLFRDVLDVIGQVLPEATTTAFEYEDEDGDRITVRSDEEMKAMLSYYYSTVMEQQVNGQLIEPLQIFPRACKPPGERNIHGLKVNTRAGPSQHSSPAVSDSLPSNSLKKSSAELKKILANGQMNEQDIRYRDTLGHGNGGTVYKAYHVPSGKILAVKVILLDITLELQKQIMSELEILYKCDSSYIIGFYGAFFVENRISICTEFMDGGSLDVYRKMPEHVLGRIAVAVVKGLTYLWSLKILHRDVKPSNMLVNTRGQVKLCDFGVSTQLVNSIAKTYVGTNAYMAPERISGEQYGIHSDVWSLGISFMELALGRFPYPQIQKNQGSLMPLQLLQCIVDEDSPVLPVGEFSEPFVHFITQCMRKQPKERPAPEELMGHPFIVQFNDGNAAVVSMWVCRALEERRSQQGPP
Procedure: as §1

Erk2, sequence (P28482 whole entry): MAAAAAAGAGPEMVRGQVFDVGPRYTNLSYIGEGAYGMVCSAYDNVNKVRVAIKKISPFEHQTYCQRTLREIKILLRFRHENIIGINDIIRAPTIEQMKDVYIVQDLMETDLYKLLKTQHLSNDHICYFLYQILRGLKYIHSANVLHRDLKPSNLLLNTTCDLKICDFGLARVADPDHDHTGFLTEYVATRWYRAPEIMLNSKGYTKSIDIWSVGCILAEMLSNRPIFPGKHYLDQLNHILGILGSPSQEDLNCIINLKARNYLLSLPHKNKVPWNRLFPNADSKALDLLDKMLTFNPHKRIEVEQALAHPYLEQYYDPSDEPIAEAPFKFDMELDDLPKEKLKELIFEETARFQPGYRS
MARK3, sequence (P27448 whole entry): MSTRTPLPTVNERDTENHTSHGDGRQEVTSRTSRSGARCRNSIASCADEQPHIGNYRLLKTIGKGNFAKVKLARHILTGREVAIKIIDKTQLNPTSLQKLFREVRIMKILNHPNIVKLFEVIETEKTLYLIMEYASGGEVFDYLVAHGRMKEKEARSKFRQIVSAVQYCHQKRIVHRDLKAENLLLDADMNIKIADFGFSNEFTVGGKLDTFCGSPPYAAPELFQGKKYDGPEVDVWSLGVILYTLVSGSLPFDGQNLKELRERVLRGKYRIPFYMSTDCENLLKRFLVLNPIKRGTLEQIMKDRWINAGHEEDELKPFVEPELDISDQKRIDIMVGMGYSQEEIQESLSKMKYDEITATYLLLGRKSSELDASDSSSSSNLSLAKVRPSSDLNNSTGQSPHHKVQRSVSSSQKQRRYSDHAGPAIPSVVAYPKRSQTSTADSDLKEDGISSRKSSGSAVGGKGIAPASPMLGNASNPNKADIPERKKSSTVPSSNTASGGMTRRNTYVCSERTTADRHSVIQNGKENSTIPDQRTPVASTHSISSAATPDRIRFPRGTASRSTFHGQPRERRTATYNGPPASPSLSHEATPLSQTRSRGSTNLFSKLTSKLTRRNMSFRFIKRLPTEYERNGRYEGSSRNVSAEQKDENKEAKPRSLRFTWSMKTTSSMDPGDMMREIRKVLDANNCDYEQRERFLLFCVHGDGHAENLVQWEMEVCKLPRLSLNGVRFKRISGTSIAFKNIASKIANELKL
AurB, sequence (Q96GD4 whole entry): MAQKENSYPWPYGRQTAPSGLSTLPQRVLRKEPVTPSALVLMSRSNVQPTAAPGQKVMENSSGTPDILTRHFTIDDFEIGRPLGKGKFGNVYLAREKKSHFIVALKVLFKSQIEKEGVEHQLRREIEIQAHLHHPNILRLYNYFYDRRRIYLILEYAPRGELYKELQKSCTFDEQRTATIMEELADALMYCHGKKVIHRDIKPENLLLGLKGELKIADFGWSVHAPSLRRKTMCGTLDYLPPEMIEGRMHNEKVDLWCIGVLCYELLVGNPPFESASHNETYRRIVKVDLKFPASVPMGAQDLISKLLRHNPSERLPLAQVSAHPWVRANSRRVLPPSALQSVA
CaMK2d, sequence (Q13557 whole entry): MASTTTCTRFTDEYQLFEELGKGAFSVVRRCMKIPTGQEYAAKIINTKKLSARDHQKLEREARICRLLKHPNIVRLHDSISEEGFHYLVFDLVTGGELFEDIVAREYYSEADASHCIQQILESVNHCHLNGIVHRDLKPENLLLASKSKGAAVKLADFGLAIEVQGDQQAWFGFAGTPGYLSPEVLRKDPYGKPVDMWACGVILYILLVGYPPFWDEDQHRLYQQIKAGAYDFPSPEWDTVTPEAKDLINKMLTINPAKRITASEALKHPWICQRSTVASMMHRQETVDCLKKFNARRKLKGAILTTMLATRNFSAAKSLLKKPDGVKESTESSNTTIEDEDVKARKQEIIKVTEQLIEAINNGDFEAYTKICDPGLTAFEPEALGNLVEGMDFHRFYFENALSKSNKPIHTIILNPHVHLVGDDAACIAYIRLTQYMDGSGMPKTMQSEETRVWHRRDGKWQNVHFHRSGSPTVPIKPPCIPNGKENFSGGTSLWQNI
FES, sequence (P07332 whole entry): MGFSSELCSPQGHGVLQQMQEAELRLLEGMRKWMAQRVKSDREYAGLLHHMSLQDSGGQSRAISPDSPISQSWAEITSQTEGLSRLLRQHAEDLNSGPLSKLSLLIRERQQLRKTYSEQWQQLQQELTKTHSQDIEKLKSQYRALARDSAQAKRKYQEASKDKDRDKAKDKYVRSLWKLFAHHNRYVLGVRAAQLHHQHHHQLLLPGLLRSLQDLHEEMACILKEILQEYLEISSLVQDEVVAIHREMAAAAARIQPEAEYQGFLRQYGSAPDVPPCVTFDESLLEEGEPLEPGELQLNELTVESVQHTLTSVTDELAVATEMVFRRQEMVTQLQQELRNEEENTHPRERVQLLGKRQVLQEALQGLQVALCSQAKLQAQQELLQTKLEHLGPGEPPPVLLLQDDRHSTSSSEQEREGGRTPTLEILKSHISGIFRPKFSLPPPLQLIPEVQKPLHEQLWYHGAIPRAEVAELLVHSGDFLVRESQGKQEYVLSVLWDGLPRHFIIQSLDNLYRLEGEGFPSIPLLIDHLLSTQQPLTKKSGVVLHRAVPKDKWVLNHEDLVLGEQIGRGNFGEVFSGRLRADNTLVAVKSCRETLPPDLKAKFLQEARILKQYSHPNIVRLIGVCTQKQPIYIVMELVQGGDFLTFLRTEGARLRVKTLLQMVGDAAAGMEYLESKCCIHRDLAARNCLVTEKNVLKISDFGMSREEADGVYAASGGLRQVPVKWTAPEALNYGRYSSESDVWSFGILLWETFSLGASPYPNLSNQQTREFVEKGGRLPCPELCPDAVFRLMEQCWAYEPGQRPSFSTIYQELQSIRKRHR

inhibition at 10 µM [1]: 72.1%
inhibition at 10 µM [2]: 68.5%
inhibition at 10 µM [3]: 93.1%
inhibition at 10 µM [4]: 90.8%
inhibition at 10 µM [5]: 95.1%
inhibition at 10 µM [6]: 90.4%
SMILES: CS(=O)(=O)Nc1ccccc1Nc1nc(Nc2cccc(OCCN)c2)ncc1Cl [CZC31326, N-(2-(2-(3-(2-aminoethoxy)phenylamino)-5-chloropyrimidin-4-ylamino)phenyl)methanesulfonamide]

— US20120270237A9, “METHODS FOR THE IDENTIFICATION OF KINASE INTERACTING MOLECULES AND FOR THE PURIFICATION OF KINASE PROTEINS” (Cellzone AG, priority 2009, published 2012)
